30 compounds from patent publication US20220289753A1, “SHP2 INHIBITORS” (IRBM S.P.A., priority 2019, published 2022) can be followed below.

A value given as a limit tells only on which side of the number the result lay.

This experiment concerns the target T1, SHP-2 enzyme (Met1-Leu525) (Homo sapiens, UniProt Q06124).
T1 construct: synthetized by Origene, Met1-Leu525, cat #TP750155; purchased Origene TP750155
T1 sequence (Q06124 1-525): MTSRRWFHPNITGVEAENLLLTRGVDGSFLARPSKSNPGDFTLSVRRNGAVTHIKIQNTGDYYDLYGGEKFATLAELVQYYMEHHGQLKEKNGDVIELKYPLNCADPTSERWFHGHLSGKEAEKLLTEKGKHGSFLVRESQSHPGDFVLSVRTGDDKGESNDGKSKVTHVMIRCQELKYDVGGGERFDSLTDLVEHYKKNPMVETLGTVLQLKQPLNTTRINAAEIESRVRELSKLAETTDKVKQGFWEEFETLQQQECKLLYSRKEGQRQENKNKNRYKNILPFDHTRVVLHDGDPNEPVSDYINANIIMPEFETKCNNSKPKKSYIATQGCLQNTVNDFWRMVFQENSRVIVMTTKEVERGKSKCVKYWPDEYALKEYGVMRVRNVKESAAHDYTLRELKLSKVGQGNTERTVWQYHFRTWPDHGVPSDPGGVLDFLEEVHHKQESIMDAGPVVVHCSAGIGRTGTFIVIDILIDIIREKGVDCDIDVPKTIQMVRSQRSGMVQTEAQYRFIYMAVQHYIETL
Put plainly: SHP2 inhibition enzymatic assay (DiFMUP substrate, IRS1 peptide activation). Format: biochemical. The note with it: SHP2 wt; activated by 500 nM IRS1 peptide; 75 μM DiFMUP substrate. How it is done:
SHP2 Inhibition Enzymatic Assay
Assay volume of 20 μL/well was assembled in 384 well black polystyrene low-binding microplates (Greiner), using the following buffer: 60 mM HEPES pH 7.2, 75 mM NaCl, 75 mM KCl, 1 mM EDTA pH 8, 0.05% tween-20, 5 mM DTT. The SHP-2 enzyme (synthetized by Origene, Met1-Leu525, cat #TP750155) was used at a final concentration of 0.5 nM.
Briefly, DMSO serially diluted testing compounds were transferred to the bottom of the assay plate. SHP2 was then added together with the IRS1 peptide. 30 minutes post incubation, the DiFMUP substrate was added to the reaction and incubated 30 min at room temperature. […] The fluorescence was detected by a microplate reader (Envision, PerkinElmer) according to the DiFMUP excitation and emission wavelength. The lower the fluorescence the higher the SHP2 inhibition.
The percentage inhibition is fitted against the compound dilutions with a four-parameter logistic regression. The inflection point (i.e. the concentration at which half-maximal inhibition is achieved) is the IC50.
Compound `CC1(N)CCN(c2nc3ncc(Sc4cccnc4)nc3[nH]2)CC1` [Example 12, 4-methyl-1-(6-(pyridin-3-ylthio)-1H-imidazo[4,5-b]pyrazin-2-yl)piperidin-4-amine] showed an IC50 of 500 to 3000 nM.
Compound `COC(=O)c1ccccc1Sc1cnc2[nH]c(N3CCC(C)(N)CC3)nc2n1` [Example 78, methyl 2-((2-(4-amino-4-methylpiperidin-1-yl)-1H-imidazo[4,5-b]pyrazin-5-yl)thio)benzoate] returned an IC50 of 500 to 3000 nM.
For `CC1(N)CCN(c2nc3nc(Sc4nc5ccccc5c(=O)[nH]4)cnc3[nH]2)CC1` [Example 91, 2-((2-(4-amino-4-methylpiperidin-1-yl)-1H-imidazo[4,5-b]pyrazin-5-yl)thio)quinazolin-4(3H)-one] the value was 500 to 3000 nM; for `CC1(N)CCN(c2nc3nc(Sc4ccccc4Cl)cnc3[nH]2)CC1` [Example 98, 1-(5-((2-chlorophenyl)thio)-1H-imidazo[4,5-b]pyrazin-2-yl)-4-methylpiperidin-4-amine], less than 500 nM.
`NC1CCCN(c2nc3nc(Sc4cccnc4C(F)(F)F)cnc3[nH]2)CC1` (stereo not drawn) [Example 85, 1-(5-((2-(trifluoromethyl)pyridin-3-yl)thio)-1H-imidazo[4,5-b]pyrazin-2-yl)azepan-4-amine] came in with an IC50 of 500 to 3000 nM.
Next, `N[C@@H]1c2ccccc2CC12CCN(c1nc3nc(Sc4ccnc5ccsc45)cnc3[nH]1)CC2` [Example 212, (S)-1′-(5-(thieno[3,2-b]pyridin-7-ylthio)-1H-imidazo[4,5-b]pyrazin-2-yl)-1,3-dihydrospiro[indene-2,4′-piperidin]-1-amine]: less than 500 nM.
As for `CC1(N)CCN(c2nc3nc(Sc4cccnc4C(F)(F)F)cnc3n2CC2CC2)CC1` [Example 13, 1-(1-(cyclopropylmethyl)-5-((2-(trifluoromethyl)pyridin-3-yl)thio)-1H-imidazo[4,5-b]pyrazin-2-yl)-4-methylpiperidin-4-amine], the concentration for half-maximal inhibition (IC50) lay in the range of 500 to 3000 nM.
As for `CC1(N)CCN(c2nc3ncc(Oc4cccc(Cl)c4Cl)nc3[nH]2)CC1` [Example 122, 1-(5-(2,3-dichlorophenoxy)-1H-imidazo[4,5-b]pyrazin-2-yl)-4-methylpiperidin-4-amine], the IC50 is 500 to 3000 nM.
`CC1(N)CCN(c2nc3ncc(Sc4ccccc4)nc3[nH]2)CC1` [Example 11, 4-methyl-1-(6-(phenylthio)-1H-imidazo[4,5-b]pyrazin-2-yl)piperidin-4-amine] had an IC50 of 500 to 3000 nM.
`NC1CCN(c2nc3nc(Sc4cccnc4C(F)(F)F)cnc3[nH]2)CC1` [Example 7, 1-(5-((2-(trifluoromethyl)pyridin-3-yl)thio)-1H-imidazo[4,5-b]pyrazin-2-yl)piperidin-4-amine] registered a half-maximal inhibitory concentration (IC50) of 500 to 3000 nM.
For `Cc1nc(-c2cccc(Sc3cnc4[nH]c(N5CCC(C)(N)CC5)nc4n3)c2)cs1` [Example 48, 4-methyl-1-(5-((3-(2-methylthiazol-4-yl)phenyl)thio)-1H-imidazo[4,5-b]pyrazin-2-yl)piperidin-4-amine] the value was 500 to 3000 nM; for `Cn1cnc(C2CCN(c3nc4nc(Sc5cccnc5C(F)(F)F)cnc4[nH]3)CC2)c1` [Example 53, 2-(4-(1-methyl-1H-imidazol-4-yl)piperidin-1-yl)-5-((2-(trifluoromethyl)pyridin-3-yl)thio)-1H-imidazo[4,5-b]pyrazine], greater than 3000 nM.
For `CCn1c(N2CCC(C)(N)CC2)nc2ncc(Sc3cccnc3C(F)(F)F)nc21` [Example 72, 1-(1-ethyl-6-((2-(trifluoromethyl)pyridin-3-yl)thio)-1H-imidazo[4,5-b]pyrazin-2-yl)-4-methylpiperidin-4-amine] the value was greater than 3000 nM; for `CC1(N)CCN(c2nc3nc(Sc4cccc5[nH]cnc45)cnc3[nH]2)CC1` [Example 116], 500 to 3000 nM.
Take `CC1(N)CCN(c2nc3nc(Sc4ccc(C#N)cc4C(F)(F)F)cnc3[nH]2)CC1` [Example 19, 4-((2-(4-amino-4-methylpiperidin-1-yl)-1H-imidazo[4,5-b]pyrazin-5-yl)thio)-3-(trifluoromethyl)benzonitrile]: the IC50 was less than 500 nM.
Take `N[C@@H]1c2ccccc2CC12CCN(c1nc3nc(Sc4cccnc4C(F)(F)F)c(Cl)nc3[nH]1)CC2` [Example 118, (S)-1′-(6-chloro-5-((2-(trifluoromethyl)pyridin-3-yl)thio)-1H-imidazo[4,5-b]pyrazin-2-yl)-1,3-dihydrospiro[indene-2,4′-piperidin]-1-amine]: the IC50 was less than 500 nM.
On to `FC(F)(F)c1ncccc1Sc1cnc2[nH]c(NCC3CCNCC3)nc2n1` [Example 110, N-(piperidin-4-ylmethyl)-5-((2-(trifluoromethyl)pyridin-3-yl)thio)-1H-imidazo[4,5-b]pyrazin-2-amine], for which the IC50 was greater than 3000 nM.
As for `FC(F)(F)c1ncccc1Sc1cnc2[nH]c(NCCCN3CCOCC3)nc2n1` [Example 123, N-(3-morpholinopropyl)-5-((2-(trifluoromethyl)pyridin-3-yl)thio)-1H-imidazo[4,5-b]pyrazin-2-amine], the IC50 was greater than 3000 nM.
As for `CC1(N)CCN(c2nc3nc(Sc4ccncc4Cl)cnc3[nH]2)CC1` [Example 28, 1-(5-((3-chloropyridin-4-yl)thio)-1H-imidazo[4,5-b]pyrazin-2-yl)-4-methylpiperidin-4-amine], the IC50 was less than 500 nM.
Compound `FC(F)(F)c1ncccc1Sc1cnc2[nH]c(NCCc3cn4ccccc4n3)nc2n1` [Example 43, N-(2-(imidazo[1,2-a]pyridin-2-yl)ethyl)-5-((2-(trifluoromethyl)pyridin-3-yl)thio)-1H-imidazo[4,5-b]pyrazin-2-amine] gave a concentration for half-maximal inhibition (IC50) of 500 to 3000 nM.
For `CC1(N)CCN(c2nc3ncc(Sc4ccc(C5(C#N)CCC5)cc4)nc3[nH]2)CC1` [Example 29, 1-(4-((2-(4-amino-4-methylpiperidin-1-yl)-1H-imidazo[4,5-b]pyrazin-6-yl)thio)phenyl)cyclobutane-1-carbonitrile], the concentration for half-maximal inhibition (IC50) was greater than 3000 nM.
`Nc1nccc(Sc2cnc3[nH]c(N4CCC5(CC4)Oc4ccccc4[C@H]5N)nc3n2)c1Cl` [Example 159, (R)-1′-(5-((2-amino-3-chloropyridin-4-yl)thio)-1H-imidazo[4,5-b]pyrazin-2-yl)-3H-spiro[benzofuran-2,4′-piperidin]-3-amine] displayed an IC50 of less than 500 nM.
For `FC(F)(F)c1ncccc1Sc1cnc2[nH]c(NCc3ccn[nH]3)nc2n1` [Example 32, N-((1H-pyrazol-5-yl)methyl)-5-((2-(trifluoromethyl)pyridin-3-yl)thio)-1H-imidazo[4,5-b]pyrazin-2-amine], the IC50 is greater than 3000 nM.
With `Cc1cccc(Sc2cnc3[nH]c(N4CCC(C)(N)CC4)nc3n2)c1C` [Example 39, 1-(5-((2,3-dimethylphenyl)thio)-1H-imidazo [4,5-b]pyrazin-2-yl)-4-methylpiperidin-4-amine], the IC50 was less than 500 nM.
`CC1(N)CCN(c2nc3nc(Sc4cc(C(F)(F)F)ccc4Cl)cnc3[nH]2)CC1` [Example 36, 1-(5-((2-chloro-5-(trifluoromethyl)phenyl)thio)-1H-imidazo[4,5-b]pyrazin-2-yl)-4-methylpiperidin-4-amine] displayed an IC50 of 500 to 3000 nM.
Compound `CC1(N)CCN(c2nc3nc(Sc4ccncc4)cnc3[nH]2)CC1` [Example 80, 4-methyl-1-(5-(pyridin-4-ylthio)-1H-imidazo[4,5-b]pyrazin-2-yl)piperidin-4-amine] gave an IC50 of 500 to 3000 nM.
`CC1(N)CCN(c2nc3nc(Sc4ccc(-c5nnc(-c6ccccc6)o5)cc4)cnc3[nH]2)CC1` [Example 59, 4-methyl-1-(5-((4-(5-phenyl-1,3,4-oxadiazol-2-yl)phenyl)thio)-1H-imidazo[4,5-b]pyrazin-2-yl)piperidin-4-amine] gave an IC50 of 500 to 3000 nM.
On to `CC1(N)CCN(c2nc3nc(Sc4cccc5c4COC5)cnc3[nH]2)CC1` [Example 77, 1-(5-((1,3-dihydroisobenzofuran-4-yl)thio)-1H-imidazo[4,5-b]pyrazin-2-yl)-4-methylpiperidin-4-amine], for which the IC50 was less than 500 nM.
For the compound `NC(=O)Cn1c(N2CCC3(CC2)Cc2ccccc2[C@H]3N)nc2nc(Sc3cccnc3C(F)(F)F)cnc21` [Example 137, (S)-2-(2-(1-amino-1,3-dihydrospiro[indene-2,4′-piperidin]-1′-yl)-5-((2-(trifluoromethyl)pyridin-3-yl)thio)-1H-imidazo[4,5-b]pyrazin-1-yl)acetamide], the IC50 was greater than 3000 nM.
As for `CC1(N)CCN(c2nc3nc(Sc4ccnc5c(C(F)(F)F)cccc45)cnc3[nH]2)CC1` [Example 97], the IC50 was 500 to 3000 nM.

For orientation: IC50 means the concentration that inhibits the measured activity by half.
